Drawing on patent publication US4383113A, “Agricultural sulfonamides” (E. I. Du Pont de Nemours and Company, priority 1981, dated 1983), this text covers response rating for 14 molecules.

Holding throughout (design): key: 0 = no effect, 10 = maximum effect; letter = response symbol
Test [1] has as its system morningglory. Briefly: Test A pre-emergence. The test is classed as in vivo, Ipomoea spp. An outline of the steps: (§1)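 Seeds and tubers were treated preemergence in a growth medium with compound in a nonphytotoxic solvent, against untreated controls; emerged plants such as two-leaf barnyardgrass and five-leaf cotton were sprayed postemergence, against solvent-sprayed controls. After sixteen days in a greenhouse, response was rated visually from 0 to 10.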

Test [2] relates to cocklebur. The test can be described thus: Test A pre-emergence. The test is classed as in vivo, Xanthium spp. An outline of the steps:
as §1

The subject of test [3] is cassia. The test can be described thus: Test A pre-emergence. The test is classed as in vivo, Cassia tora. Summed up: as §1
In the next test the test system is barnyardgrass. Briefly: Test A pre-emergence. The test is classed as in vivo, Echinochloa crusgalli. Summed up:
as §1

The test system of test [4] is wild oats. The test can be described thus: Test A pre-emergence. The test is classed as in vivo, Avena fatua. The source says: (§2) The activity of these compounds was discovered in a number of greenhouse and field tests. The ratings are based on a numerical scale extending from 0=no effect, to 10=maximum effect. The accompanying descriptive symbols have the following meanings:
(§3) Seeds of crabgrass (Digitaria spp.), barnyardgrass (Echinochloa crusgalli), wild oats (Avena fatua), cassia (Cassia tora), morningglory (Ipomoea spp.), cocklebur (Xanthium spp.), sorghum, corn, soybean, rice, wheat and nutsedge tubers (Cyperus rotundus) were planted in a growth medium and treated preemergence with a nonphytotoxic solvent solution of the compounds of Table XII. Other batches of seeds and tubers for all of the foregoing weed and crop plants were planted at the same time as controls. The control plantings were untreated; i.e., neither any compound nor any solvent was applied. At the same time, cotton having five leaves (including cotyledonary ones), bush beans with the third trifoliate leaf expanding, crabgrass with two leaves, barnyardgrass with two leaves, wild oats with two leaves, cassia with three leaves (including cotyledonary ones), morningglory with four leaves (including the cotyledonary ones), cocklebur with four leaves (including the cotyledonary ones), sorghum with four leaves, corn with four leaves, soybean with two cotyledonary leaves, rice with three leaves, wheat with one leaf, and nutsedge with three-five leaves were sprayed with a nonphytotoxic solvent solution of the compounds of Table XII. Other groups of all the same weed and crop plants were sprayed with the same nonphytotoxic solvent so as to provide control plants. Preemergence and postemergence treated plants and controls were maintained in a greenhouse for sixteen days, then all treated plants were compared with their respective controls and rated visually for response to treatment.

The test system of test [5] is corn. The test can be described thus: Test A pre-emergence. The test is classed as in vivo. An outline of the steps:
as §1

In a further test the test system is sorghum. The test can be described thus: Test A pre-emergence. The test is classed as in vivo. Summed up: as §1
Another test concerns soybean. Briefly: Test A pre-emergence. The test is classed as in vivo. Summed up: as §1
The test system of test [6] is wheat. Briefly: Test A pre-emergence. The test is classed as in vivo. An outline of the steps: as §1
The subject of a further test is crabgrass. Briefly: Test A pre-emergence. The test is classed as in vivo, Digitaria spp.
Excerpt: as §2, §3

Another test concerns bush bean. The test can be described thus: Test A post-emergence. The test is classed as in vivo, bush beans. Conditions: 0.4 kg/ha.
Test [7] deals with morningglory. Briefly: Test A post-emergence. The test is classed as in vivo, Ipomoea spp. Conditions: 0.4 kg/ha. An outline of the steps:
as §1

In test [8] the test system is cocklebur. The test can be described thus: Test A post-emergence. The test is classed as in vivo, Xanthium spp. Conditions: 0.4 kg/ha. Summed up:
as §1

The test system of test [9] is cassia. Briefly: Test A post-emergence. The settings on record: 0.4 kg/ha. The test is classed as in vivo, Cassia tora. Summed up: as §1
Test [10] has as its system corn. Briefly: Test A post-emergence. The test is classed as in vivo. Conditions: 0.4 kg/ha. Summed up:
as §1

The next test has as its system cotton. The test can be described thus: Test A post-emergence. The test is classed as in vivo. Conditions: 0.4 kg/ha. An outline of the steps:
as §1

Another test concerns nutsedge. Briefly: Test A post-emergence. The test is classed as in vivo, Cyperus rotundus. The settings on record: 0.4 kg/ha. An outline of the steps: as §1
The subject of test [11] is wheat. The test can be described thus: Test A post-emergence. The test is classed as in vivo. Conditions: 0.4 kg/ha. An outline of the steps:
as §1

Test [12] concerns wild oats. Briefly: Test A post-emergence. The test is classed as in vivo, Avena fatua. The settings on record: 0.4 kg/ha. An outline of the steps:
as §1

Consider `COC(=O)c1ccccc1S(=O)(=O)NC(=O)Nc1nnc(C)c(C)n1` [drawing 484], for which the response rating in the test with morningglory [1] (2 kg/ha) is recorded as 9C; in the test on cocklebur [2] (2 kg/ha), 9G; in the test on cassia [3] (2 kg/ha), 9C; in the test with barnyardgrass (2 kg/ha), 9H; in the test on wild oats [4] (2 kg/ha) it was 9H; with corn [5] (2 kg/ha), 9G. Also, the response rating in the test on sorghum (2 kg/ha), in the test on soybean (2 kg/ha) and in the test with wheat [6] (2 kg/ha) was 9H throughout.
As for `CCCCOC(=O)c1ccccc1S(=O)(=O)NC(=O)Nc1nc(C)cc(OC)n1` [drawing 507], the response rating worked out at 9G in the test on morningglory [1] (0.4 kg/ha); 9G in the test with cocklebur [2] (0.4 kg/ha); 9G with cocklebur [2] (2 kg/ha); 9G with cassia [3] (0.4 kg/ha); 7G with crabgrass (0.4 kg/ha); 9H with barnyardgrass (0.4 kg/ha). Besides, the response rating with barnyardgrass (2 kg/ha) came out at 9H; in the test on corn [5] (0.4 kg/ha) it was 9G; with corn [5] (2 kg/ha), 9G; in the test on sorghum (0.4 kg/ha), 9H; in the test with sorghum (2 kg/ha) it was 9H; with soybean (0.4 kg/ha), 9H. The response rating in the test on soybean (2 kg/ha), with wheat [6] (0.4 kg/ha) and in the test on wheat [6] (2 kg/ha) was 9H each time.
Consider `COC(=O)c1ccccc1S(=O)(=O)NC(=O)Nc1nc(OC)cc(OC)n1` [drawing 481], for which the response rating stood at 9G in the test with morningglory [1] (0.4 kg/ha); 9G in the test on cocklebur [2] (0.4 kg/ha); 9G with cassia [3] (0.4 kg/ha); 9H in the test with crabgrass (0.4 kg/ha); 9H with barnyardgrass (0.4 kg/ha); 9H with wild oats [4] (0.4 kg/ha). The response rating in the test with corn [5] (0.4 kg/ha), with sorghum (0.4 kg/ha) and in the test with wheat [6] (0.4 kg/ha) was 9H each time.
Take `COc1nc(C)nc(NC(=O)NS(=O)(=O)c2ccccc2C(=O)OC(C)Cc2ccccc2)n1` (stereo not drawn) [drawing 524]: the response rating came to 9G in the test on morningglory [1] (0.4 kg/ha); 9G in the test on cocklebur [2] (0.4 kg/ha); 9H in the test with barnyardgrass (0.4 kg/ha); 9H in the test with wild oats [4] (0.4 kg/ha); 9H with corn [5] (0.4 kg/ha); 9H with sorghum (0.4 kg/ha). Also, the response rating with soybean (0.4 kg/ha) and in the test on wheat [6] (0.4 kg/ha) was 9H throughout.
For the molecule `COc1nc(C)nc(NC(=O)NS(=O)(=O)c2ccccc2C(=O)OC2CCCCC2C)n1` (stereo not drawn), the response rating in the test on bush bean was 9C; in the test on morningglory [7], 10C; in the test on cocklebur [8] it was 9C; with cassia [9], 9C; in the test with corn [10], 10C; with cotton, 9C.
On to `COc1cc(C)nc(NC(=O)NS(=O)(=O)c2ccccc2C(=O)NC(C)C)n1` [drawing 530], for which the response rating in the test on morningglory [1] (0.4 kg/ha) is 9G; with cocklebur [2] (0.4 kg/ha), 8G; in the test on cassia [3] (0.4 kg/ha) it was 9G; in the test on crabgrass (0.4 kg/ha) it was 9H; with barnyardgrass (0.4 kg/ha), 9H; in the test on corn [5] (0.4 kg/ha), 9H. The response rating with sorghum (0.4 kg/ha), with soybean (0.4 kg/ha) and with wheat [6] (0.4 kg/ha) was 9H each time.
For `CCCCOC(=O)c1ccccc1S(=O)(=O)NC(=O)Nc1nc(OC)cc(OC)n1` [drawing 506], the response rating was determined as 9G with morningglory [1] (0.4 kg/ha); 9G with cocklebur [2] (0.4 kg/ha); 9G in the test on cocklebur [2] (2 kg/ha); 9G in the test on cassia [3] (0.4 kg/ha); 9C in the test with cassia [3] (2 kg/ha); 8G with crabgrass (0.4 kg/ha). For the same molecule, the response rating in the test on crabgrass (2 kg/ha) came to 7G; with barnyardgrass (0.4 kg/ha) it was 9H; with barnyardgrass (2 kg/ha) it was 9H; in the test with wild oats [4] (0.4 kg/ha), 7G; in the test with wild oats [4] (2 kg/ha), 8G; in the test on corn [5] (2 kg/ha), 9G. The response rating in the test on sorghum (2 kg/ha) was 9H; in the test on soybean (0.4 kg/ha), 7H; with soybean (2 kg/ha), 9H; in the test on wheat [6] (0.4 kg/ha), 9G; with wheat [6] (2 kg/ha) it was 9G.
With `COC(=O)c1ccccc1S(=O)(=O)NC(=O)Nc1ncccn1` [drawing 485], the response rating in the test with cocklebur [2] (2 kg/ha) stood at 9G; in the test with cassia [3] (2 kg/ha), 9G; in the test on wild oats [4] (2 kg/ha), 8G; in the test with corn [5] (2 kg/ha), 9G; with sorghum (2 kg/ha), 9G; in the test on wheat [6] (2 kg/ha), 8G.
Take `COc1nc(C)nc(NC(=O)NS(=O)(=O)c2ccccc2C(=O)OC(C)C)n1` [drawing 425]: the response rating with bush bean was determined as 9C; in the test with morningglory [7], 10C; with cocklebur [8], 10C; with cassia [9], 10C; in the test with nutsedge, 10C; in the test on corn [10], 10C. In addition, the figures for the response rating in the test with cotton and with wheat [11] were 9C and 2C, respectively.
`COc1nc(C)nc(NC(=O)NS(=O)(=O)c2ccccc2C(=O)OC2CCCCCCC2)n1` [drawing 456]: the response rating was 9C with bush bean; 10C in the test on morningglory [7]; 9C in the test with cocklebur [8]; 9C with cassia [9]; 4G in the test with nutsedge; 4G in the test on wild oats [12]. Moreover, the response rating worked out at 9C in the test with corn [10], 9C in the test on cotton and 2G with wheat [11].
In the case of `COc1nc(C)nc(NC(=O)NS(=O)(=O)c2ccccc2C(=O)OC(C)C)n1` [drawing 492], the response rating in the test with morningglory [1] (0.4 kg/ha) is recorded as 9G; with cocklebur [2] (0.4 kg/ha), 9G; in the test on wild oats [4] (0.4 kg/ha), 9G; with corn [5] (0.4 kg/ha) it was 9G; in the test on soybean (0.4 kg/ha), 9H; in the test with wheat [6] (0.4 kg/ha), 5G.
Turning to `COC(=O)c1cc(Cl)ccc1S(=O)(=O)NC(=O)Nc1nc(OC)cc(OC)n1` [drawing 433], the response rating with bush bean came to 9C; with morningglory [7], 10C; with cocklebur [8], 10C; with cassia [9] it was 9C; in the test on nutsedge, 10C; with wild oats [12], 9G. In addition, the values for the response rating in the test with corn [10] and in the test with cotton were 6H and 9C, respectively.
On to `COC(=O)c1cc(Cl)ccc1S(=O)(=O)NC(=O)Nc1nc(OC)cc(OC)n1` [drawing 500], for which the response rating with morningglory [1] (0.4 kg/ha) is listed as 9G; in the test with cocklebur [2] (0.4 kg/ha) it was 9G; with crabgrass (0.4 kg/ha), 5G; in the test on barnyardgrass (0.4 kg/ha), 9H; in the test on wild oats [4] (0.4 kg/ha) it was 9G; in the test on corn [5] (0.4 kg/ha) it was 9H. Besides, the response rating in the test with sorghum (0.4 kg/ha) is recorded as 9H; in the test on soybean (0.4 kg/ha) it was 9H; in the test on wheat [6] (0.4 kg/ha) it was 3G.
Regarding `COC(=O)c1ccccc1S(=O)(=O)NC(=O)Nc1nc(C)cc(OC)n1` [drawing 480], the response rating came out at 9G in the test with morningglory [1] (0.4 kg/ha); 9G in the test on cocklebur [2] (0.4 kg/ha); 9G in the test on cassia [3] (0.4 kg/ha); 9H with crabgrass (0.4 kg/ha); 9H in the test with barnyardgrass (0.4 kg/ha); 9H in the test with wild oats [4] (0.4 kg/ha). The response rating is 10H in the test on corn [5] (0.4 kg/ha), 9H with sorghum (0.4 kg/ha), 9H in the test with soybean (0.4 kg/ha) and 9H with wheat [6] (0.4 kg/ha).
